# From patent publication US5543415A, “Antidepressants” (Kyowa Hakko Kogyo Co., Ltd., priority 1992, dated 1996)
# Tests used:
# [1] = tested on: clonidine-induced aggressive behavior; assay: Effect on Clonidine-Induced Aggressive Behavior (number of biting attacks during 30 minutes); format: in vivo, male ddY mice; conditions: po; for Number of the Biting Attacks (mean ± S.E.M.), Test Compound-Treated Group: 60 min before clonidine 20 mg/kg ip, 30 min count
# Procedure: The effect of a test compound on the aggressive behavior induced by intraperitoneal administration of clonidine was investigated. […] The experiment was performed by using several groups of male ddY mice (weighing 20 to 25 g, Japan SLC), each group consisting of two mice. The test compound was suspended in injectable distilled water (Otsuka Pharmaceutical Co., Ltd.) containing Tween 80 [polyoxyethylene (20) sorbitan monooleate]. Clonidine hydrochloride (Sigma Co.) was dissolved in physiological saline solution (Otsuka Pharmaceutical Co., Ltd.). The test compound suspension and the control suspension were orally administered to separate groups of the mice (0.1 ml per 10 g of body weight). Sixty minutes after the oral administration of the test compound, clonidine hydrochloride (20 mg/kg) was intraperitoneally injected. The number of biting attacks during 30 minutes after clonidine treatment was counted. The effect of the compound was evaluated by comparing the average number of biting attacks of the test compound-administered groups with that of control groups (Statistical comparison: Student's t-test).
# ddY-strain male mice = assay: Acute Toxicity Test (minimum lethal dose, oral); format: in vivo; conditions: seven days after administration
# Procedure: Test compounds were orally administered to groups of ddY-strain male mice weighing 20±1 g, each group consisting of three mice. Seven days after the administration, minimum lethal dose (MLD) of each compound was determined by observing the mortality.
Structure (SMILES),"Number of the Biting Attacks (mean ± S.E.M.), Test Compound-Treated Group ([1]; 5 mg/kg)","response vs control in vivo at 5 mg/kg ([1]; Mus musculus, 5 mg/kg, read-out: Number of the Attacks of Test Compound-Treated Group/Number of the Attacks of Control Group) [%]",MLD (minimum lethal dose) (ddY-strain male mice) [mg/kg],"Number of the Biting Attacks (mean ± S.E.M.), Test Compound-Treated Group ([1]; 10 mg/kg)","response vs control in vivo at 10 mg/kg ([1]; Mus musculus, 10 mg/kg, read-out: Number of the Attacks of Test Compound-Treated Group/Number of the Attacks of Control Group) [%]","Number of the Biting Attacks (mean ± S.E.M.), Test Compound-Treated Group ([1]; 2.5 mg/kg)","response vs control in vivo at 2.5 mg/kg ([1]; Mus musculus, 2.5 mg/kg, read-out: Number of the Attacks of Test Compound-Treated Group/Number of the Attacks of Control Group) [%]"
"CCCn1c(=O)c2c(nc(/C=C/c3cc(OC)c(OC)c(OC)c3)n2C)n(CCC)c1=O [Compound 5, (E)-7-Methyl-1,3-dipropyl-8-(3,4,5-trimethoxystyryl)xanthine]",25.4 ± 7.71,350,> 300,–,–,–,–
"CCn1c(=O)c2c(nc(/C=C/c3cccc(Br)c3)n2C)n(CC)c1=O [Compound 162, (E)-8-(3-Bromostyryl)-1,3-diethyl-7-methylxanthine]",–,–,> 100,17.9 ± 6.67,850,–,–
"CCn1c(=O)c2c(nc(/C=C/c3cc(OC)c4c(c3)OCO4)n2C)n(CC)c1=O [Compound 179, (E)-1,3-Diethyl-8-(3-methoxy-4,5-methylenedioxystyryl)7-methylxanthine]",–,–,> 100,67.7 ± 16.08,–,–,–
"CCCn1c(=O)c2c(nc(/C=C/c3ccc(OC)c(C)c3C)n2C)n(CCC)c1=O [Compound 14, (E)-8-(4-Methoxy-2,3-dimethylstyryl)-7-methyl-1,3-dipropylxanthine]",–,–,> 300,–,–,40.7 ± 8.50,730
